Patent publication US20220187282A1, “CARDIOMYOCYTE PROLIFERATION” (The Council of the Queensland Institute of Medical Research, priority 2019, published 2022)

How the values were obtained:
[1] = system: mature hCOs; experiment: mature hCO, mitosis (pH3) of cardiomyocytes; type: cell-based, human; conditions: 2 days, optimal concentrations
Description: (§1) Whole-Mount Immunostaining hCOs were fixed for 60 min with 1% paraformaldehyde (Sigma) at room temperature and washed 3× with PBS, after which they were incubated with primary antibodies (see Star Methods Table) in Blocking Buffer, 5% FBS and 0.2% Triton-X-100 (Sigma) in PBS overnight at 4° C. Cells were then washed in Blocking Buffer 2× for 2 h and subsequently incubated with secondary antibodies (see Star Methods Table) and Hoechst33342 (1:1000) overnight at 4° C. They were washed in Blocking Buffer 2× for 2 h and imaged in situ or mounted on microscope slides using Fluoromount-G (Southern Biotech).
For more detailed images an Olympus IX81 confocal microscope was used for mounted hCO imaging. For cell cycle analysis experiments 3 random fields of view were imaged and manually quantified for proliferation. These were added together to calculate the percentage of hPSC-CM proliferation in each hCO.
Hits were next validated in mature hCOs using a targeted concentration range based on their active concentrations in the initial immature hCO screen (FIG. 3A). Proliferation markers were quantified using high magnification confocal imaging as we found flow cytometry to be inaccurate in hCO (data not shown). Compounds 3, 63 and 65 had no impact on contractile force (FIG. 3B) at concentrations of 3 μM, 0.3 μM and 1 μM, respectively. […]

[2] = system: immature hCOs; experiment: immature hCO screen, Ki-67 intensity (proliferation); type: cell-based, human; conditions: for proliferation in immature hCO (Ki-67 intensity): 0.1, 1 and 10 μM, 2 days; for hCO Screen Max Effect (%): maximum over 0.1, 1, 10 uM
Description: Heart-dyno culture inserts were fabricated using standard SU-8 photolithography and PDMS molding practices (Mills et al., 2017a). CTRL medium: α-MEM GlutaMAX (ThermoFisher Scientific), 10% fetal bovine serum (FBS) (ThermoFisher Scientific), 200 μM L-ascorbic acid 2-phosphate sesquimagnesium salt hydrate (Sigma) and 1% Penicillin/Streptomycin (ThermoFisher Scientific). For each hCO, 5×10^4 cardiac cells in CTRL medium were mixed with collagen I to make a 3.5 μL final solution containing 2.6 mg/mL collagen I and 9% Matrigel. The bovine acid-solubilized collagen I (Devro) was first salt balanced and pH neutralized using 10×DMEM and 0.1 M NaOH, respectively, prior to mixing with Matrigel and cells. The mixture was prepared on ice and pipetted into the Heart-Dyno. The Heart-Dyno was then centrifuged at 100×g for 10 s to ensure the hCO form halfway up the posts. The mixture was then gelled at 37° C. for 60 min prior to the addition of CTRL medium to cover the tissues (150 μL/hCO). The Heart-Dyno design facilitates the self-formation of tissues around in-built PDMS exercise poles (designed to deform ˜0.07 μm/μN). The medium was changed every 2-3 days (150 μL/hCO).
hCOs were cultured in CTRL medium for formation for 5 days and then either kept in CTRL medium culture or changed to maturation medium (Mills et al., 2017a) comprising DMEM without glucose, glutamine and phenol red (ThermoFisher Scientific) supplemented with 4% […](without insulin) (ThermoFisher Scientific), 1% GlutaMAX (ThermoFisher Scientific), 200 μM L-ascorbic acid 2-phosphate sesquimagnesium salt hydrate and 1% Penicillin/Streptomycin (ThermoFisher Scientific), 1 mmol/L glucose and 100 μmon palmitic acid (conjugated to bovine serum albumin within B27 by incubating for 2h at 37° C., Sigma) with changes every 2-3 days.
as §1
For screening hCOs were imaged using a Leica DMi8 high content imaging microscope for in situ imaging. Custom batch processing files were written in Matlab R2013a (Mathworks) to remove the background, calculate the image intensity, and export the batch data to an Excel (Microsoft) spreadsheet.
The compound library included 5,000 biologically annotated pre-clinical, clinical, and tool compounds. They were selected based on a combination of criteria including balancing the number of external/internal compounds, diversity of annotated targets to cover greater than 1500 biological targets, and known targets associated with cell proliferation. […] Both negative vehicle (DMSO) and positive (CHIR99021) controls were included on each plate in each experiment (FIG. 2B,C).

Structure (SMILES)	cell cycle progression and mitosis of cardiomyocytes (pH3+) [1]	hCO Screen 0.1 uM Prolif Activation Ki-67 (%) [2]	hCO Screen 1 uM Prolif Activation Ki-67 (%) [2]	hCO Screen 10 uM Prolif Activation Ki-67 (%) [2]	proliferation in immature hCO (Ki-67 intensity) [2]	hCO Screen Max Effect (%) [2]
Cc1ccc(NC(=O)c2ccnc(N3CCOCC3)c2)cc1Nc1ccnc(N2CC(C)OC(C)C2)n1 (stereo not drawn) [compound 3]	promoted cell cycle progression and mitosis	299%	23%	111%	induced proliferation	299%
Cc1cc(Oc2ccnc(Nc3ccc(S(N)(=O)=O)cc3)c2)c(-c2ccccn2)nc1C [compound 65]	promoted cell cycle progression and mitosis	−38%	96%	121%	induced proliferation	121%
